We go through four compounds from the NIST ThermoML archive (doi:10.1016/j.jct.2016.02.008).

The structures appear in SMILES notation. ± gives the expanded uncertainty stated by the source.

For series [1] the following is noted: Crystal; for Normal melting temperature: DTA; for mass density: 298.15 K, 101.33 kPa, measuring the mass and volume of a pellet.
Series [2] is described as follows: Molar enthalpy of transition or fusion. The following applies: Crystal; DSC.
Series [3] can be described thus: molar heat capacity at constant pressure. The following applies: 298.15 K; 101.33 kPa; Crystal; Small sample (50 mg) DSC.

`O=C(O)c1cc2ccccc2[nH]1` [indole-2-carboxylic acid]: the Normal melting temperature in series [1] is 210.0 ± 0.8 °C. For the same compound, the “Molar enthalpy of transition or fusion” value in series [2] was determined as 5.49 ± 0.153 kcal/mol. Also, in series [3], the “molar heat capacity at constant pressure” value is 178.4 ± 5.5 J/K/mol.
As to `CC(=O)c1cc2ccccc2o1` [2-acetylbenzofuran], the Normal melting temperature in series [1] was found to be 66 ± 0.9 °C. Further, in series [2], the “Molar enthalpy of transition or fusion” value stood at 5.09 ± 0.12 kcal/mol. Further, the “molar heat capacity at constant pressure” value in series [3] was 192.1 ± 5.3 J/K/mol.
Usually mass density stands for the mass of a sample divided by its volume. As for `O=C(O)c1cc2ccccc2s1` [benzo[b]thiophene-2-carboxylic acid], in series [1], the mass density is on record as 1490 ± 120 kg/m3 and the Normal melting temperature was 244.6 ± 0.6 °C. Also, the “Molar enthalpy of transition or fusion” value in series [2] worked out at 7.5 ± 0.165 kcal/mol. Moreover, the “molar heat capacity at constant pressure” value in series [3] is reported as 179 ± 4.6 J/K/mol.
`O=C(O)c1cc2ccccc2o1` [benzofuran-2-carboxylic acid]: in series [1], the mass density turned out to be 1340 ± 60 kg/m3 and the Normal melting temperature amounted to 196.7 ± 0.6 °C. Also, the “Molar enthalpy of transition or fusion” value in series [2] was 6.49 ± 0.155 kcal/mol. In addition, in series [3], the “molar heat capacity at constant pressure” value was 184.8 ± 3.9 J/K/mol.
